{
  "source": "patent US20060223857A1",
  "about": "“Combination of a serotonin reuptake inhibitor and a glycine transporter type 1 inhibitor for the treatment of depression” (priority 2003, published 2006)",
  "tested_on": "serotonin levels in rat ventral hippocampus",
  "experiment": "Microdialysis of serotonin levels in ventral hippocampus",
  "format": "in vivo",
  "protocol": "Male albino rats of a Wistar-derived strain (285-320 g; Harlan, Zeist, The Netherlands) were used for the experiments. Upon surgery, rats were housed individually in plastic cages (35×35×40 cm), and had free access to food and water. Animals were kept on a 12 h light schedule (light on 7:00 a.m.). The experiments are concordant with the declarations of Helsinki and were approved by the animal care committee of the faculty of mathematics and natural science of the University of Groningen.\nThe following drugs were used: Citalopram hydrobromide and NFPS having the structure: [drawing 3] (LU 2736N) (Lundbeck A/S, Copenhagen, Denmark). Drugs were dissolved in saline and administered s.c. Surgery […]\nTwenty-μl microdialysate samples were injected via an autoinjector (CMA/200 refrigerated microsampler, CMA, Sweden) onto a 100×2.0 mm C18 Hypersil 3 μm column (Bester, Amstelveen, the Netherlands) and separated with a mobile phase consisting of 5 g/L di-ammoniumsulfate, 500 mg/L EDTA, 50 mg/L heptane sulphonic acid, 4% methanol v/v, and 30 μl/L of triethylamine, pH 4.65 at a flow of 0.4 ml/min (Shimadzu LC-10 AD). 5-HT was detected amperometrically at a glassy carbon electrode at 500 mV vs Ag/AgCl (Antec Leyden, Leiden, The Netherlands). […]",
  "data": [
    {"smiles": "CN(CCC(Oc1ccc(-c2ccccc2)cc1)c1ccc(F)cc1)CC(=O)O", "note": "(centres unmarked) [NFPS]", "values": [
      {"measurement": "augmentation of the effect of citalopram on hippocampal serotonin levels", "setting": "NFPS 10 μmol/kg s.c. co-administered with citalopram 10 μmol/kg s.c., Treatment P=0.044, Treatment vs. Time P=0.033", "result": "significantly augmented the effect of citalopram"},
      {"measurement": "effect on serotonin levels in rat ventral hippocampus", "setting": "NFPS alone, 10 μmol/kg s.c., microdialysis, Wistar rats", "result": "did not induce any significant effects"}
    ]}
  ]
}
